According to the NIST ThermoML archive (doi:10.1021/je060271a):
Numbers after ± are expanded uncertainties.

Conditions: Liquid, Vibrating tube method

CCCCC(=O)OCC(COC(=O)CCCC)(COC(=O)CCCC)COC(=O)CCCC [pentaerythritol tetrapentanoate]
Conditions	mass density [kg/m3]
303.16 K, 794.63 kPa	1011.4 ± 1.2
303.16 K, 4758.7 kPa	1013.9 ± 1.2
303.16 K, 10737 kPa	1017.8 ± 1.2
303.16 K, 10776 kPa	1017.7 ± 1.2
303.16 K, 19666 kPa	1023 ± 1.2
303.16 K, 25722 kPa	1026.7 ± 1.2
303.16 K, 33332 kPa	1030.7 ± 1.2
303.16 K, 33572 kPa	1030.8 ± 1.2
303.16 K, 34311 kPa	1031.2 ± 1.2
303.16 K, 34317 kPa	1031.3 ± 1.3
303.16 K, 34322 kPa	1031.4 ± 1.3
303.16 K, 34329 kPa	1031.2 ± 1.3
303.16 K, 34349 kPa	1031.2 ± 1.3
323.14 K, 736.7 kPa	995.1 ± 1.2
323.14 K, 775.7 kPa	995.1 ± 1.2
323.14 K, 800.8 kPa	995.2 ± 1.2
323.14 K, 1023.7 kPa	995.3 ± 1.2
323.14 K, 1214.2 kPa	995.6 ± 1.2
323.14 K, 1242.9 kPa	995.4 ± 1.2
323.14 K, 1267.4 kPa	995.5 ± 1.2
323.14 K, 1292.7 kPa	995.4 ± 1.2
323.14 K, 1352.1 kPa	995.6 ± 1.2
323.14 K, 1554.7 kPa	995.8 ± 1.2
323.14 K, 1591.2 kPa	995.7 ± 1.2
323.14 K, 1625.4 kPa	995.6 ± 1.2
323.14 K, 1652.3 kPa	995.8 ± 1.2
323.14 K, 1677.1 kPa	995.8 ± 1.2
323.14 K, 1847.7 kPa	995.8 ± 1.2
323.14 K, 1899.2 kPa	995.8 ± 1.2
323.14 K, 1926.8 kPa	996 ± 1.2
323.14 K, 1959.1 kPa	996 ± 1.2
323.14 K, 1986.5 kPa	996.1 ± 1.2
323.14 K, 2181.7 kPa	996.1 ± 1.2
323.14 K, 2215.2 kPa	996.1 ± 1.2
323.14 K, 2249 kPa	996.2 ± 1.2
323.14 K, 2284.1 kPa	996.3 ± 1.2
323.14 K, 2935.8 kPa	996.6 ± 1.2
323.14 K, 2965.1 kPa	996.7 ± 1.2
323.14 K, 3225.9 kPa	996.8 ± 1.2
323.14 K, 3237 kPa	996.9 ± 1.2
323.14 K, 3248.4 kPa	996.9 ± 1.2
323.14 K, 3385 kPa	996.9 ± 1.2
323.14 K, 7926.5 kPa	1000.3 ± 1.2
323.14 K, 7971.9 kPa	1000.2 ± 1.2
323.14 K, 9459.5 kPa	1001.1 ± 1.2
323.14 K, 9766.4 kPa	1001.5 ± 1.2
323.14 K, 9799.5 kPa	1001.4 ± 1.2
323.14 K, 9832.9 kPa	1001.5 ± 1.2
323.14 K, 9906.9 kPa	1001.6 ± 1.2
323.14 K, 9941.6 kPa	1001.6 ± 1.2
323.14 K, 10052 kPa	1001.6 ± 1.2
323.14 K, 10094 kPa	1001.7 ± 1.2
323.14 K, 10244 kPa	1001.9 ± 1.2
323.14 K, 11507 kPa	1002.6 ± 1.2
323.14 K, 12708 kPa	1003.4 ± 1.2
323.14 K, 13903 kPa	1004.3 ± 1.2
323.14 K, 14014 kPa	1004.2 ± 1.2
323.14 K, 14206 kPa	1004.4 ± 1.2
323.14 K, 14241 kPa	1004.3 ± 1.2
323.14 K, 19359 kPa	1007.7 ± 1.2
323.14 K, 19418 kPa	1007.7 ± 1.2
323.14 K, 19454 kPa	1007.7 ± 1.2
323.14 K, 19485 kPa	1007.9 ± 1.2
323.14 K, 28758 kPa	1013.5 ± 1.2
323.14 K, 28848 kPa	1013.6 ± 1.2
323.14 K, 28889 kPa	1013.5 ± 1.2
323.14 K, 28930 kPa	1013.6 ± 1.2
323.14 K, 29171 kPa	1013.8 ± 1.2
323.14 K, 29205 kPa	1013.9 ± 1.2
323.14 K, 29234 kPa	1013.8 ± 1.2
323.14 K, 29268 kPa	1014 ± 1.2
323.14 K, 29296 kPa	1013.9 ± 1.2
323.15 K, 106.09 kPa	994.8 ± 1.2
323.15 K, 106.1 kPa	994.7 ± 1.2
323.15 K, 106.26 kPa	994.6 ± 1.2
323.15 K, 106.44 kPa	994.7 ± 1.2
323.15 K, 107.13 kPa	994.6 ± 1.2
323.15 K, 108 kPa	994.6 ± 1.2
323.15 K, 108.53 kPa	994.7 ± 1.2
323.15 K, 110.43 kPa	994.6 ± 1.2
323.15 K, 112.87 kPa	994.7 ± 1.2
323.15 K, 115.82 kPa	994.7 ± 1.2
323.15 K, 118.77 kPa	994.7 ± 1.2
323.15 K, 121.05 kPa	994.6 ± 1.2
323.15 K, 124.52 kPa	994.7 ± 1.2
323.15 K, 129.04 kPa	994.6 ± 1.2
323.15 K, 133.91 kPa	994.8 ± 1.2
323.15 K, 140.34 kPa	994.7 ± 1.2
323.15 K, 147.99 kPa	994.8 ± 1.2
323.15 K, 159.99 kPa	994.7 ± 1.2
323.15 K, 173.53 kPa	994.6 ± 1.2
323.15 K, 190.4 kPa	994.6 ± 1.2
323.15 K, 218.21 kPa	994.8 ± 1.2
323.15 K, 249.16 kPa	994.8 ± 1.2
323.15 K, 296.4 kPa	994.7 ± 1.2
323.15 K, 338.3 kPa	994.8 ± 1.2
323.15 K, 358.5 kPa	994.8 ± 1.2
323.15 K, 373.8 kPa	994.9 ± 1.2
323.15 K, 387.5 kPa	994.7 ± 1.2
323.15 K, 401.6 kPa	994.8 ± 1.2
323.15 K, 416.9 kPa	994.9 ± 1.2
323.15 K, 429 kPa	995 ± 1.2
323.15 K, 441.9 kPa	995 ± 1.2
323.15 K, 455.3 kPa	995 ± 1.2
323.15 K, 472.5 kPa	994.9 ± 1.2
323.15 K, 488.1 kPa	994.9 ± 1.2
323.15 K, 504.6 kPa	995 ± 1.2
323.15 K, 525.8 kPa	995 ± 1.2
323.15 K, 543.7 kPa	995 ± 1.2
323.15 K, 564 kPa	995 ± 1.2
323.15 K, 582.3 kPa	995 ± 1.2
323.15 K, 601.7 kPa	995 ± 1.2
323.15 K, 627.6 kPa	995.1 ± 1.2
323.15 K, 645.4 kPa	995.1 ± 1.2
323.15 K, 665.2 kPa	995.1 ± 1.2
323.15 K, 681.1 kPa	995.1 ± 1.2
323.15 K, 697.1 kPa	995 ± 1.2
323.15 K, 718 kPa	995.2 ± 1.2
323.15 K, 755.5 kPa	995 ± 1.2
323.15 K, 823.3 kPa	995.1 ± 1.2
323.15 K, 846.7 kPa	995.1 ± 1.2
323.15 K, 871.2 kPa	995.4 ± 1.2
323.15 K, 903.5 kPa	995.2 ± 1.2
323.15 K, 930.1 kPa	995.3 ± 1.2
323.15 K, 958.1 kPa	995.3 ± 1.2
323.15 K, 984.8 kPa	995.4 ± 1.2
323.15 K, 1006.3 kPa	995.3 ± 1.2
323.15 K, 1041.8 kPa	995.4 ± 1.2
323.15 K, 1060 kPa	995.3 ± 1.2
323.15 K, 1082.2 kPa	995.4 ± 1.2
323.15 K, 1101.7 kPa	995.3 ± 1.2
323.15 K, 1121.7 kPa	995.4 ± 1.2
323.15 K, 1146.9 kPa	995.5 ± 1.2
323.15 K, 1168.2 kPa	995.4 ± 1.2
323.15 K, 1191 kPa	995.4 ± 1.2
323.15 K, 1319.1 kPa	995.2 ± 1.2
323.15 K, 1380.2 kPa	995.5 ± 1.2
323.15 K, 1416.2 kPa	995.6 ± 1.2
323.15 K, 1447.4 kPa	995.6 ± 1.2
323.15 K, 1479.7 kPa	995.8 ± 1.2
323.15 K, 1512.7 kPa	995.6 ± 1.2
323.15 K, 1698.1 kPa	995.8 ± 1.2
323.15 K, 1720.3 kPa	995.8 ± 1.2
323.15 K, 1747.2 kPa	995.8 ± 1.2
323.15 K, 1770.3 kPa	995.8 ± 1.2
323.15 K, 1793.7 kPa	995.8 ± 1.2
323.15 K, 1822.9 kPa	995.9 ± 1.2
323.15 K, 1873.2 kPa	995.9 ± 1.2
323.15 K, 2015.2 kPa	996.1 ± 1.2
323.15 K, 2044.7 kPa	996.1 ± 1.2
323.15 K, 2080.6 kPa	996 ± 1.2
323.15 K, 2111.5 kPa	996.1 ± 1.2
323.15 K, 2143.5 kPa	996.3 ± 1.2
323.15 K, 2327.6 kPa	996.2 ± 1.2
323.15 K, 2364.9 kPa	996.1 ± 1.2
323.15 K, 2402.4 kPa	996.3 ± 1.2
323.15 K, 2448.3 kPa	996.3 ± 1.2
323.15 K, 2487.7 kPa	996.4 ± 1.2
323.15 K, 2528.3 kPa	996.4 ± 1.2
323.15 K, 2578.1 kPa	996.3 ± 1.2
